ChEMBL document CHEMBL5260858, “Targeting mycobacterial membranes and membrane proteins: Progress and limitations” (Bioorg Med Chem, 2023)
≈ marks a conversion by molar mass, not a printed value.

Experiments:
[1] = tested on: Mycobacterium tuberculosis; assay: Antitubercular activity against Mycobacterium tuberculosis assessed as bacterial growth inhibition; type: functional
[2] = tested on: Mycobacterium tuberculosis; assay: Antimycobacterial activity against Mycobacterium tuberculosis H37Rv ATCC27294 assessed as bacterial growth inhibition incubated for 7 days by microplate Alamar blue assay; type: functional; details: H37Rv ATCC27294, 168 h, time 7 day
[3] = tested on: Mycobacterium tuberculosis; assay: Antitubercular activity against Mycobacterium tuberculosis H37Rv ATCC25618 assessed as bacterial growth inhibition incubated for 6 days by resazurin based fluorescence analysis; type: functional; details: H37Rv ATCC25618, 144 h, time 6 day
[4] = tested on: Mycobacterium tuberculosis; assay: Antitubercular activity against Mycobacterium tuberculosis H37Rv assessed as bacterial growth inhibition by microdilution method; type: functional
[5] = tested on: Mycobacterium tuberculosis; assay: Antitubercular activity against Mycobacterium tuberculosis H37Rv infected in human monocyte macrophage assessed as bacterial growth inhibition and measured after 21 days by colony counting based analysis; type: functional; details: 504 h, time 21 day
[6] = tested on: Mycobacterium tuberculosis; assay: Antitubercular activity against Mycobacterium tuberculosis H37Rv assessed as bacterial growth inhibition incubated for 6 days by resazurin reduction microplate assay; type: functional; details: 144 h, time 6 day
[7] = tested on: Mycobacterium tuberculosis; assay: Antitubercular activity against Mycobacterium tuberculosis H37Rv infected in human THP-1 cells assessed as bacterial growth inhibition incubated for 48 hrs by PrestoBlue staining based fluorescence analysis; type: functional, organism-based; details: THP-1, 48 h
[8] = tested on: Mycobacterium tuberculosis; assay: Antitubercular activity against Mycobacterium tuberculosis H37Rv infected in BALB/c mouse assessed as reduction in bacterial load at 100 mg/kg, po for 10 days by CFU analysis; type: functional; details: time 10 day
[9] = tested on: Mycobacterium tuberculosis; assay: Antitubercular activity against Mycobacterium tuberculosis H37Rv assessed as bacterial growth inhibition and measured upto 14 days by microplate alamar blue assay; type: functional; details: 336 h, time <= 14 day
[10] = tested on: Mycobacterium tuberculosis; assay: Antitubercular activity against Mycobacterium tuberculosis H37Rv assessed as bacterial growth inhibition incubated for 7 days by resazurin reduction microplate assay; type: functional; details: 168 h, time 7 day
[11] = tested on: Mycobacterium tuberculosis; assay: Antitubercular activity against Mycobacterium tuberculosis mc2 7000 assessed as bacterial growth inhibition incubated for 6 days by resazurin based fluorescence assay; type: functional; details: mc2 7000, 144 h, time 6 day
[12] = tested on: Mycobacterium tuberculosis; assay: Antitubercular activity against Mycobacterium tuberculosis H37Rv assessed as bacterial growth inhibition incubated for 14 days by agar plate method; type: functional; details: 336 h, time 14 day
[13] = tested on: Mycobacteroides abscessus; assay: Antitubercular activity against Mycobacterium abscessus CIP104536 assessed as bacterial growth inhibition incubated 3 to 5 days by resazurin based broth microdilution method; type: functional; details: time 3-5 day
[14] = tested on: Mycobacterium tuberculosis; assay: Antitubercular activity against Mycobacterium tuberculosis H37Rv assessed as bacterial growth inhibition; type: functional
[15] = tested on: Mycobacterium tuberculosis; assay: Antitubercular activity against Mycobacterium tuberculosis H37Rv expressing GFP assessed as bacterial growth inhibition by measuring GFP fluorescence incubated for 72 hrs by fluorescence analysis; type: functional
[16] = tested on: Mycobacterium tuberculosis; assay: In vivo antimycobacterial activity against Mycobacterium tuberculosis H37Rv infected in BALB/c mouse assessed as reduction in log10 CFU in lungs at 50 mg/kg, po and measured after 4 weeks; type: functional
[17] = tested on: Mycobacterium tuberculosis; assay: In vivo antimycobacterial activity against Mycobacterium tuberculosis H37Rv infected in BALB/c mouse assessed as reduction in log10 CFU in lungs at 12.5 mg/kg, po and measured after 4 weeks; type: functional
[18] = tested on: Mycobacterium tuberculosis; assay: Antitubercular activity against Mycobacterium tuberculosis H37Rv assessed as bacterial growth inhibition by REMA analysis; type: functional
[19] = tested on: Mycobacterium tuberculosis; assay: Antitubercular activity against Mycobacterium tuberculosis H37Rv ATCC 27294 infected in mouse J774 cells assessed as intracellular bacterial growth inhibition incubated for by resazurin microtiter assay; type: functional
[20] = tested on: Mycobacterium tuberculosis; assay: Antitubercular activity against Mycobacterium tuberculosis H37Rv ATCC 27294 assessed as bacterial growth inhibition by resazurin microtiter assay; type: functional
[21] = tested on: Mycobacterium tuberculosis; assay: Antitubercular activity against Mycobacterium tuberculosis H37Rv infected in human HepG2 cells assessed as reduction in colony forming unit by CFU analysis; type: functional, organism-based
[22] = tested on: Mycobacterium tuberculosis; assay: Antitubercular activity against Mycobacterium tuberculosis H37Rv assessed as bacterial growth inhibition incubated for 6 days by resazurin based fluorescence assay; type: functional; details: 144 h, time 6 day
[23] = tested on: Mycobacterium tuberculosis; assay: Antimycobacterial activity against Mycobacterium tuberculosis H37Rv assessed as bacterial growth inhibition incubated for 1 week by resazurin reduction microplate assay; type: functional; details: 168 h, time 1 weeks
[24] = target: T1, Decaprenylphosphoryl-beta-D-ribose oxidase (Mycobacterium tuberculosis (strain ATCC 25618 / H37Rv), UniProt P9WJF1); assay: Inhibition of Mycobacterium tuberculosis H37Rv DprE1 assessed as formation of resorufin using farnesyl-phosphoryl-beta-D-ribofuranose by AmplexRed reagent based fluorescence assay
T1 sequence (P9WJF1 whole entry): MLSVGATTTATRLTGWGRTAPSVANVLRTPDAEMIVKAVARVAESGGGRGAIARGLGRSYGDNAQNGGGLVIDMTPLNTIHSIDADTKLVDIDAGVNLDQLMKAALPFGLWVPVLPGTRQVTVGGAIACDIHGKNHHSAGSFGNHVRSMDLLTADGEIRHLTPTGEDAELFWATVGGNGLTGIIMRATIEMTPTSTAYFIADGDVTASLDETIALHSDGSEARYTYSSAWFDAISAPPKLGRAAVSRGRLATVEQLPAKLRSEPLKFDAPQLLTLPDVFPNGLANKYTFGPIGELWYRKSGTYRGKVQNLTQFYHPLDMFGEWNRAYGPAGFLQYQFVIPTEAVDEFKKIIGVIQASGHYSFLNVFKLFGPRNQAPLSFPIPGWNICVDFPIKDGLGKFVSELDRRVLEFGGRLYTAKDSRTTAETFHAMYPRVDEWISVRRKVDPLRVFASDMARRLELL

[25] = tested on: Mycobacterium tuberculosis; assay: Antitubercular activity against Mycobacterium tuberculosis H37Rv assessed as bacterial growth inhibition incubated for 24 hrs by [14C]-acetate labelling based radiometric analysis; type: functional

CN(C)CCCN1c2ccccc2Sc2ccc(Cl)cc21 [CHLORPROMAZINE]
MIC [1]: 25 µg/mL (≈ 78.4 µM)

O=c1nc(N2CCC3(CCN(Cc4ccc(F)cc4)C3)CC2)sc2c([N+](=O)[O-])cc(C(F)(F)F)cc12
MIC [2]: < 0.035 µM

CCc1ccc(NC(=O)COc2cc(C)nc3ccc(OC)cc23)cc1
MIC [3]: 0.02 µg/mL (≈ 0.0571 µM)

COC(=O)c1c(NC(=O)c2c(F)c(F)c(F)c(F)c2F)sc(C(N)=O)c1C
MIC [4]: 0.5 µM

Cc1cc2nc(CCC3CCCCC3)[nH]c2cc1C
MIC99 [5]: 0.145 µM (≈ 0.0372 µg/mL)

O=C(/C=C/c1cscn1)N1CCN(Cc2ccc3c(c2)OCO3)CC1
MIC [6]: 0.1 µg/mL (≈ 0.28 µM)
IC50 [7]: 0.2 µg/mL (≈ 0.56 µM)
Activity [8]: 0.6 log10CFU

Cc1cc(C)c2cc(C(=O)NC3CCCCC3)[nH]c2c1
MIC [9]: 0.125 µg/mL (≈ 0.462 µM)

CCNc1nc(SCC)nc2ccccc12
IC50 [7]: 0.011 µg/mL (≈ 0.0471 µM)
MIC [10]: 0.05 µg/mL (≈ 0.214 µM)

CNC(=O)c1c(-c2ccccc2)oc2ccc(O)c(CN3CCCCC3)c12
MIC [11]: 0.2 µM (≈ 0.0729 µg/mL)

O=C(/C=C/c1nccs1)N1CCN(Cc2ccc3c(c2)OCO3)CC1
MIC [6]: 0.3 µg/mL (≈ 0.839 µM)
IC50 [7]: 1.8 µg/mL (≈ 5.04 µM)

Cc1cc2oc(=O)cc(-c3ccccc3)c2c(C)c1-c1ccc(CN2CCOCC2)cc1
MIC [12]: 0.42 µM (≈ 0.179 µg/mL)

OC1(c2ccc(Cl)c(C(F)(F)F)c2)CCN(Cc2ccccc2I)CC1
MIC99 [13]: 0.125 µg/mL (≈ 0.252 µM)

O=C(/C=C/c1ccccc1)N1CCN(Cc2ccc3c(c2)OCO3)CC1
MIC [6]: 0.2 µg/mL (≈ 0.571 µM)
IC50 [7]: 0.3 µg/mL (≈ 0.856 µM)
Activity [8]: 0.9 log10CFU

CCCCCCCCn1cc(CN2CCC3(CC2)OCCCO3)c2ccc(OC)cc21
MIC50 [14]: 0.5 µM (≈ 0.214 µg/mL)

CC(C)(C)c1ccc(Cn2cnc([N+](=O)[O-])n2)cc1
IC90 [15]: 0.5 µM

CC1(C)CCC(NC(=O)c2cc3c(Cl)cc(Cl)cc3[nH]2)CC1
Activity [16]: 3.82 log10CFU
Activity [17]: 1.24 log10CFU

Brc1ccc2[nH]c(CCC3CCCCC3)nc2c1
MIC99 [5]: 2.44 µM (≈ 0.75 µg/mL)

O=c1nc(N2CCN(CCCCOc3ccccc3)CC2)sc2c([N+](=O)[O-])cc(C(F)(F)F)cc12
MIC [18]: 0.0015 µg/mL (≈ 0.00295 µM)

CCCc1ccc(NC(=O)COc2cc(C)nc3ccc(OC)cc23)cc1
MIC [3]: 0.02 µg/mL (≈ 0.0549 µM)

CCSc1nc(NC)c2ccccc2n1
IC50 [7]: 0.012 µg/mL (≈ 0.0547 µM)
MIC [10]: 0.09 µg/mL (≈ 0.41 µM)

CC1(C)CC(=O)C(=CNc2ccccc2O)C(=O)C1
MIC [19]: 8 µg/mL (≈ 30.9 µM)
MIC90 [20]: 7 µg/mL (≈ 27 µM)

O=c1nc(N2CCN(CCCCc3ccccc3)CC2)sc2c([N+](=O)[O-])cc(C(F)(F)F)cc12
MIC [18]: 0.00035 µg/mL (≈ 0.000711 µM)

NC(=O)c1cnccn1 [PYRAZINAMIDE]
MIC [14]: 3.12 µg/mL (≈ 25.3 µM)

CCOC(=O)c1nc2ccc(C(F)(F)F)cc2nc1NCc1ccc(OC)cc1
MIC99 [18]: 3.1 µM (≈ 1.26 µg/mL)
IC50 [21]: 6.1 µM

CCOc1ccc(CNc2nc3cc(C(F)(F)F)ccc3nc2C(=O)O)cc1
MIC99 [18]: 3.1 µM (≈ 1.21 µg/mL)

COC(=O)c1c(NC(=O)c2c(F)c(F)c(F)c(F)c2F)sc2c1CCCCC2
MIC [4]: 1 µM

c1cc2c(s1)CCOC21CCN(Cc2ccc3c(c2)OCCO3)CC1
MIC [22]: 0.38 µM (≈ 0.136 µg/mL)

Cc1cc(C)c2cc(C(=O)NC3CCCCCC3)[nH]c2c1
MIC [9]: 0.0156 µg/mL (≈ 0.0549 µM)

Cc1cc(C)c2cc(C(=O)NC3CCCCCCC3)[nH]c2c1
MIC [9]: 0.0039 µg/mL (≈ 0.0131 µM)

C[C@H]1COC2(CCN(c3nc(=O)c4cc(C(F)(F)F)cc(-n5cccc5)c4s3)CC2)O1
MIC [23]: 0.35 µM (≈ 0.158 µg/mL)
IC50 [24]: < 8 µM

CCc1ccc([C@H]2C[C@@H](C(F)(F)F)n3ncc(C(=O)NCc4ccc(F)cc4)c3N2)cc1
MIC [25]: 0.16 µM (≈ 0.0714 µg/mL)
